Our source for the Activity and inhibition values is ChEMBL document CHEMBL5385847, “Design, synthesis and biological evaluation of a new class of 7H-pyrrolo[2,3-d]pyrimidine derivatives as Mps1 inhibitors for the treatment of breast cancer” (Eur J Med Chem, 2023).

The source made the active and inactive calls. The calls are words filed in the database; no cut-off is given here.

Assay [1] relates to MCF7. Description: Induction of apoptosis in human MCF7 cells assessed as early apoptotic cells at 5 uM incubated for 48 hrs by Annexin V-FITC/PI staining based flow cytometry (reference value: 1.19 %). The format is functional. Background: In flow cytometry, cells or beads pass a laser one at a time.
Assay [2] deals with ALK tyrosine kinase receptor (Homo sapiens) (UniProt Q9UM73). In words: Inhibition of human ALK at 1 uM by KINOMEscan assay relative to control.
Assay [3] addresses Insulin-like growth factor 1 receptor (Homo sapiens) (UniProt P08069). In words: Inhibition of human IGF-1R at 0.1 uM by KINOMEscan assay relative to control.
For assay [4], the system named is 4T1. In words: Antiproliferative activity against 4T1 cells assessed as inhibition of cell viability incubated for 24 to 72 hrs by MTT assay. The class given is functional, cell-based. The note with it: Mus musculus, dose <= 10.0 µM, time 24-72 hrs.
Assay [5] deals with Receptor-type tyrosine-protein kinase FLT3 (Homo sapiens) (UniProt P36888). In words: Inhibition of human FLT3 at 0.1 uM by KINOMEscan assay relative to control.
Chain of Receptor-type tyrosine-protein kinase FLT3 (Homo sapiens) (P36888 whole entry): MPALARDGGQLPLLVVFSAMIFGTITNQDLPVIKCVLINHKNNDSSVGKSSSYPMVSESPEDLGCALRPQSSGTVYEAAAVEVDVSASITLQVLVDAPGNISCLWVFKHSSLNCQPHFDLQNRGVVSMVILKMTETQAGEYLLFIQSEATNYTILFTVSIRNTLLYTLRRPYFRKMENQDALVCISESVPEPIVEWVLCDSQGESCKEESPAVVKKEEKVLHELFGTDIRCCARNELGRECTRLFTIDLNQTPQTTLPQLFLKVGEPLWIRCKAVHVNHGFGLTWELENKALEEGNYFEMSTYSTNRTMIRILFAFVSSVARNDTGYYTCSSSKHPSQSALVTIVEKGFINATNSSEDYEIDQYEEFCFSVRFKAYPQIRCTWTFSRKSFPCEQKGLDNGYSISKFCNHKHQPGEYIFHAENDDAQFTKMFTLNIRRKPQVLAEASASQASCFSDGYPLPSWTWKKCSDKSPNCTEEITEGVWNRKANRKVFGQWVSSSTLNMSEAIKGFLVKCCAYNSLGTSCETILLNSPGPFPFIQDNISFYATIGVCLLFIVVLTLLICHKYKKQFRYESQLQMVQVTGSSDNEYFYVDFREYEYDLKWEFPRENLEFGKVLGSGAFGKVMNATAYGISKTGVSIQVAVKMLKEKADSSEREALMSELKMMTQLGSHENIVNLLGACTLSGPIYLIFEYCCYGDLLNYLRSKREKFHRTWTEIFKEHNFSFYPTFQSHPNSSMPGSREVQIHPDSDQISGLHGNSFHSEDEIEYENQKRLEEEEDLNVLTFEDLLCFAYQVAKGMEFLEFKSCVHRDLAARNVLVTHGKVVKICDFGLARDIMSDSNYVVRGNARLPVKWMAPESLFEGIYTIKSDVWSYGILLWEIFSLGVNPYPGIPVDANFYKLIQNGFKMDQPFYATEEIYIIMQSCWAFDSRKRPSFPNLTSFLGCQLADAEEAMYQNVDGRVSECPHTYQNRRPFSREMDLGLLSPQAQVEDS
Assay [6] addresses Hepatocyte growth factor receptor (Homo sapiens) (UniProt P08581). In words: Inhibition of human Met at 1 uM by KINOMEscan assay relative to control.
In assay [7] the test system is 4T1. In words: Induction of cell cycle arrest in 4T1 cells at G2/M phase incubated for 24 hrs by Annexin V/PI staining based flow cytometry. The note with it: Mus musculus, dose <= 5.0 µM. The class given is functional.
In assay [8] the test system is 4T1. In words: Antiproliferative activity against 4T1 cells upto 5 uM measured after 14 days by colony formation assay. Particulars: Mus musculus, time 14.0 day. The format is functional, cell-based.
Assay [9] has as its system MCF7. In words: Induction of cell cycle arrest in human MCF7 cells at G2/M phase incubated for 24 hrs by Annexin V/PI staining based flow cytometry. The format is functional. The note with it: dose <= 5.0 µM.

Chain of Hepatocyte growth factor receptor (Homo sapiens) (P08581 whole entry): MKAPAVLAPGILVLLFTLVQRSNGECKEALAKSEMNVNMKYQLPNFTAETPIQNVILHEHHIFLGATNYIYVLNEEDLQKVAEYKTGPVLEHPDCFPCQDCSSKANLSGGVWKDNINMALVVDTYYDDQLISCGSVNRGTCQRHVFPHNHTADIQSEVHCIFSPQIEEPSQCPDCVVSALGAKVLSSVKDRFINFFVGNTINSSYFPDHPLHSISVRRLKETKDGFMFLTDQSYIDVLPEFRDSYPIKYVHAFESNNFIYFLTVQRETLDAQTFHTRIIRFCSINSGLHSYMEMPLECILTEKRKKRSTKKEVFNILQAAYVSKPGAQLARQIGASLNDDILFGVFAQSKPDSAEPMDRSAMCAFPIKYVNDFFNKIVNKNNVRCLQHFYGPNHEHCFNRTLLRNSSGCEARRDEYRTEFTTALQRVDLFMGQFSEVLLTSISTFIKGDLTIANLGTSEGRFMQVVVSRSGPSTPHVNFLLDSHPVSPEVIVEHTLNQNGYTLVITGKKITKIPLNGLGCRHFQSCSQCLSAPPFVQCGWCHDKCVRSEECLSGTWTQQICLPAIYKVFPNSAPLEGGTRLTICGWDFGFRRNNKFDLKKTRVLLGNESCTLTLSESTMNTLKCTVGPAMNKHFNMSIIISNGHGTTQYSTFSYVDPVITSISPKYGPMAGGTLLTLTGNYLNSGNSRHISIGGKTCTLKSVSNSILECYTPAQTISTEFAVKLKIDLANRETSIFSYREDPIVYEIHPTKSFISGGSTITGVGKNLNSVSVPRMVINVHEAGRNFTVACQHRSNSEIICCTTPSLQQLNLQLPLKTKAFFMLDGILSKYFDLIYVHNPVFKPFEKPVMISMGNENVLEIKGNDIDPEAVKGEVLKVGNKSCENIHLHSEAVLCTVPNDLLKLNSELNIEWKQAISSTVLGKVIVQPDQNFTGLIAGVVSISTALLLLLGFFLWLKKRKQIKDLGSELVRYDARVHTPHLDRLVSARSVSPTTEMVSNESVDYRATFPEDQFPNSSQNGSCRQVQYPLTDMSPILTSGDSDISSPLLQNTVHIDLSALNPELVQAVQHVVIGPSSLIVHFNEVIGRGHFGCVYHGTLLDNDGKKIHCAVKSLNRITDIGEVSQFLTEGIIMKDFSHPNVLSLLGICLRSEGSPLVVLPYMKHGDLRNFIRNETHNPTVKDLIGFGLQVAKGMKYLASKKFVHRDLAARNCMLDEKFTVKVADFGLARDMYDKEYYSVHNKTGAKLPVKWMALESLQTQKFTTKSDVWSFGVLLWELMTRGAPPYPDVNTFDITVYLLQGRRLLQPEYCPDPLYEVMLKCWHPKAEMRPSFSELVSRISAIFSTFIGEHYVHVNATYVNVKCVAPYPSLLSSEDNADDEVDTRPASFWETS
Chain of Insulin-like growth factor 1 receptor (Homo sapiens) (P08069 31-736 limits assumed): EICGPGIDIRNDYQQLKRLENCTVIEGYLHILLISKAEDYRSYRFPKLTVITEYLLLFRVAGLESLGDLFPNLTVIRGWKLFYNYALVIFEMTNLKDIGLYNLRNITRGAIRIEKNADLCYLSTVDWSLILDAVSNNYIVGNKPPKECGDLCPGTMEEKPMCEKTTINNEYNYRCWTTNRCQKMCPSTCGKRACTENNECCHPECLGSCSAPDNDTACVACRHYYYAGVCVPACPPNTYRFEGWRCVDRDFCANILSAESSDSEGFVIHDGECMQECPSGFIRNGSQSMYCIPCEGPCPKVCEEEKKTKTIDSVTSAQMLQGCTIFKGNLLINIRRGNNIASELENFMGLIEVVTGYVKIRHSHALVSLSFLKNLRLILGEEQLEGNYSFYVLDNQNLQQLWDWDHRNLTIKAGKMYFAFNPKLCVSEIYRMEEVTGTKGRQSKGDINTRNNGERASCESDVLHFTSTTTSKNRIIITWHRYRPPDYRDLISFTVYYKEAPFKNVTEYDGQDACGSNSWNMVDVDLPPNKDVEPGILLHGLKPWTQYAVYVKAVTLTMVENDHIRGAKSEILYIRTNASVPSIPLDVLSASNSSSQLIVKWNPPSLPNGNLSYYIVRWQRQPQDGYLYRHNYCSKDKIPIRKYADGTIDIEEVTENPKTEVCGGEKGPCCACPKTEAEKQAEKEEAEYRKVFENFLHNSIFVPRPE
Chain of Insulin-like growth factor 1 receptor (Homo sapiens) (P08069 741-1367 limits assumed): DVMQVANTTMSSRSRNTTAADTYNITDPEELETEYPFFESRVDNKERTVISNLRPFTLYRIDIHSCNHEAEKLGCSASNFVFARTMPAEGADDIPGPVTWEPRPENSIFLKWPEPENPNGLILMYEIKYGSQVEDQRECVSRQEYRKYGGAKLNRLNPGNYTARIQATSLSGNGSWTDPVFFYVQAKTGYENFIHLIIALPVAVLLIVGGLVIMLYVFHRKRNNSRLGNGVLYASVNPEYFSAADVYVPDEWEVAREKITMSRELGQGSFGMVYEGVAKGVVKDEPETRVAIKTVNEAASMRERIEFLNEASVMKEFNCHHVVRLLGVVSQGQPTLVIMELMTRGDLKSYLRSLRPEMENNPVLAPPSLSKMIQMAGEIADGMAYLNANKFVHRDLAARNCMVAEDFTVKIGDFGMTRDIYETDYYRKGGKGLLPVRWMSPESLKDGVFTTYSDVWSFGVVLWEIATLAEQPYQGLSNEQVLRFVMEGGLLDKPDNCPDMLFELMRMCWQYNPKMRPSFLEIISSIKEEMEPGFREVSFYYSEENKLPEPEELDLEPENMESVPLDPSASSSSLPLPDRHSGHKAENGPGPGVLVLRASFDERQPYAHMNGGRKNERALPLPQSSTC

For `CN1CCN(c2ccc(Nc3nc(-n4nc(N)c5ccccc54)c4cc[nH]c4n3)cc2)CC1`, the Activity is 2.3% in the assay with MCF7 [1], “Dose-Dependent Effect” in the assay with 4T1 [7] and “Dose-Dependent Effect” with MCF7 [9]. Moreover, the inhibition in assay [2] was 91%; in [3] it was 43%; in the assay on 4T1 [4] it was “Dose-Dependent Effect”; in assay [5], 86%; in assay [6], 100%. The outcome in the assay with 4T1 [8] was Active.

What is called inhibition is the percentage by which the read-out fell short of the control.
